For test [1], the system named is Sell (CD62L) mRNA in OT1 cells. Put plainly: Sell (CD62L) gene expression by quantitative real time RT-PCR in OT1 cells. The class given is cell-based, mouse. Here is the method: Example 2. In vitro culture of splenocytes comprising CD8+ T-cells. OT1 splenocytes (as described in Example 1) were cultured for 3 days at a concentration of 10^6 cells per mL in RPMI medium (Gibco 61870-01) supplemented with 10% FCS, (Gibco 10270-106), 1% Penicillin/Streptomycin (P/S; Gibco 15070-063), 0.1% 13-mercaptoethanol, 1% HEPES (Gibco 15630-080), 1× Non-essential amino acids (Gibco 11140-035), 1% L-glutamine (Gibco 25030-081), 1 mM Sodium Pyruvate (Gibco 11360-039), 100 U/m1 hIL-2 (Glaxo-IMB) and 1 μg/ml ovalbumin N4 peptide (SIINFEKL). To evaluate the effects of IDH2 inhibition on T-cell differentiation, 5 μM of a small molecule IDH2 inhibitor (AG221 or AGI6780) or a DMSO solvent control was added during this 3-day culture period. […] At day 3 and day 7, the activation and differentiation state of CD8+ T-cells was determined by gene expression analysis, flow cytometry and extracellular metabolic flux analyses (see Example 3).
a) Gene expression analysis by quantitative real time RT-PCR RNA was isolated with the RNeasy mini kit (Qiagen) and cDNA was generated by reverse transcription (Applied Biosystems). […] Gene expression was calculated relative to […] (FW primer: 5′ aga ctg ata cat acg cct gca g 3′, RV primer: 5′ gca ggt tca aat gaa tct tca g 3′).
(In general: Quantitative PCR measures a nucleic acid by following its amplification.)

The subject of another test is OT1 CD8+ T cells. Put plainly: Extracellular flux analyses (XF-96 Seahorse) of OT1 CD8+ T cells. The class given is cell-based, mouse. The settings on record: day 7, compared to DMSO. Here is the method: Example 2. In vitro culture of splenocytes comprising CD8+ T-cells. OT1 splenocytes (as described in Example 1) were cultured for 3 days at a concentration of 10^6 cells per mL in RPMI medium (Gibco 61870-01) supplemented with 10% FCS, (Gibco 10270-106), 1% Penicillin/Streptomycin (P/S; Gibco 15070-063), 0.1% 13-mercaptoethanol, 1% HEPES (Gibco 15630-080), 1× Non-essential amino acids (Gibco 11140-035), 1% L-glutamine (Gibco 25030-081), 1 mM Sodium Pyruvate (Gibco 11360-039), 100 U/m1 hIL-2 (Glaxo-IMB) and 1 μg/ml ovalbumin N4 peptide (SIINFEKL). To evaluate the effects of IDH2 inhibition on T-cell differentiation, 5 μM of a small molecule IDH2 inhibitor (AG221 or AGI6780) or a DMSO solvent control was added during this 3-day culture period. At day 3, a fraction of the splenocytes was collected and the remaining cells were cultured for 4 additional days with 100 U/ml hIL-2 and 10 ng/ml hIL-7 (Peprotech 200-07) supplementation after washing out the inhibitors and the ovalbumine N4 peptide (FIG. 1). At day 3 and day 7, the activation and differentiation state of CD8+ T-cells was determined by gene expression analysis, flow cytometry and extracellular metabolic flux analyses (see Example 3).
Real-time analysis of CD8^+ T cell oxygen consumption rate (OCR) was measured with an XF-96 Extracellular Flux Analyzer (Seahorse Bioscience) at day 7 of in vitro culture (FIG. 7). Measurements were performed while successively adding different drugs to the culture without any washing steps in between. Specifically, the measurements were performed under basal conditions, after addition of 1.25 μM oligomycin, a complex V inhibitor that blocks mitochondrial ATP synthase, after addition of 1 μM protonophore FCCP (fluoro-carbonyl cyanide phenylhydrazone) to uncouple ATP synthesis from oxygen consumption by the electron transport chain, after addition of 50 μM etomoxir to inhibit CPT1alpha, and thus fatty acid oxidation, and after addition of 100 nM rotenone and 1 μM antimycin A to inhibit the electron transport chain.
The basal OCR is the OCR measured in the absence of drugs. Addition of oligomycin allows to calculate the ATP-linked respiration by subtracting the oligomycin OCR from basal OCR. FCCP enables the electron transport chain (ETC) to reach its maximal rate, allowing to determine the cellular maximal respiratory capacity. Finally, rotenone and antimycin A inhibit the ETC which indicates the non-mitochondrial respiration. The spare respiratory capacity (SRC) is defined as the difference between basal OCR and maximal OCR obtained after FCCP addition.
In addition, the extracellular acidification rate (ECAR), which is an indicator for […], was measured using the same device under basal conditions. This allowed further calculating the OCR/ECAR ratio as indicator of basal mitochondrial activity.

Test [2] has as its system accessible chromatin regions in OT1 T-cells. Put plainly: ATAC-seq of OT1 T-cells. The class given is cell-based, mouse. The settings on record: day 7, 5 μM day 0-3, compared to DMSO-treated T-cells. Here is the method:
Methods: OT1 splenocytes were activated and cultured with 5 μM AG221 or DMSO as described in Example 2. After 3 days, the cells were washed and the IDH2 inhibitor was washed out as well. The cells were then cultured for an additional 4 days in the absence of AG221. At day 7, the cells were collected and washed once with PBS. 50′000 cells were collected for ATAC-seq while the remaining cell pellet was lysed in extraction buffer (20 mM Tris HCl, 150 mM NaCl, 1% Triton X-100, 10% glycerol, 5 mM EDTA) supplemented with Complete Mini protease inhibitor (Roche) for wester blotting.
For ATAC-seq cells were transposed with the Illumina Tagment DNA Enzyme and Buffer Small Kit according to the protocol described by Buenrostro et al. (Curr Protoc Mol Biol. 2015 Jan 5;109:21.29.1-21.29.9.). Fragments were sequenced on an Illumina NextSeq 500 instrument.

For test [3], the system named is human CD4 T cells (CD3-positive/CD8-negative). Put plainly: CD62L expression in whole culture and in CD4 T cells, human culture (FIG. 16). The class given is cell-based. The text has this:
FIG. 16: Phenotypic analysis of human bulk PBMC at day 11 post in vitro activation. (A,B) Quantification of flow cytometry analysis at day 11 post-activation showing the percentage of CD62L+ CD8 T cells in the CD3/CD8 double positive T cell population (A) or in all living cells (B) from a culture of PBMCs treated with AKTi (MK2206), IDH2i (AG221) or DMSO control. (C,D) Quantification of flow cytometry analysis at day 11 post-activation showing the percentage of CD62L+ CD4 T cells in the CD3-positive/CD8-negative T cell population (C) or in all living cells (D). (E,F) Quantification of flow cytometry analysis at day 11 post-activation showing the percentage of CD8 T cells (E, identified as CD3/CD8 double positive) and CD4 T cells (F, identified as CD3-positive/CD8-negative) in all living cells of a culture of PBMCs treated with AKTi (MK2206), IDH2i (AG221) or DMSO control. *p<0.05, compared to DMSO Graphs show mean±SEM.
The previously obtained data has undergone additional analyses, in order to obtain more insight in CD62L expression in the whole culture as well as in CD4 T cells. In the human figure A and B, we now clearly made the distinction between CD62L expression as percentage out of CD8 T cells (FIG. 16A) or out of all living cells in the culture (FIG. 16 B).
As mentioned before, about 98% of the cells in culture on day 11 are CD3-positive. Since CD3 is exclusively expressed on CD4 and CD8 T cells, we can deduct that all CD3-positive, CD8-negative must be CD4 T cells. When analyzing the CD3-pos/CD8-neg population we observed that CD62L expression is induced upon AG221 treatment, both when expressed as percentage out of CD4 T cells (FIG. 16 C) and as percentage out of total living cells (FIG. 16 D). […] This can be explained by our observation that AKT inhibition favors CD8 T cell differentiation over CD4 T cell differentiation. This ratio remains unchanged upon AG221-treatment, as compared to DMSO control (FIG. 16 E and F).

The text below walks through data of patent US20220325242A1, “IDH2 INHIBITION FOR PRODUCING T-CELLS AND B-CELLS WITH A MEMORY PHENOTYPE” (Universite de Lausanne, priority 2019, published 2022).

As to `CC(C)(O)CNc1nc(Nc2ccnc(C(F)(F)F)c2)nc(-c2cccc(C(F)(F)F)n2)n1` [AG221, 2-methyl-1-[[4-[6-(trifluoromethyl)pyridin-2-yl]-6-[[2-(trifluoromethyl)pyridin-4-yl]amino]-1,3,5-triazin-2-yl]amino]propan-2-ol], the “Sell (CD62L) mRNA expression increase” value in test [1] (day 3, 5 μM, versus DMSO) came to 3 fold. Further, the “Sell (CD62L) mRNA expression increase” value in test [1] (day 7, 5 μM day 0-3, versus DMSO) stood at 7 fold. For the same compound, in the test on OT1 CD8+ T cells, the OCR/ECAR ratio entry is listed as “unchanged”, the “basal oxygen consumption rate (OCR)” value was “significantly increased”, the “extracellular acidification rates (ECAR)” value was “unchanged” and the maximal respiratory capacity result is “significantly increased”. The “spare respiratory capacity (SRC)” value in the test with OT1 CD8+ T cells is recorded as “significantly increased”. For the same compound, in test [2], the “more accessible regions in the DNA (ATAC-seq)” value was 1633. The “CD8 T cell versus CD4 T cell differentiation (ratio in all living cells)” value in test [3] (day 11, compared to DMSO control) is “unchanged”. In test [3] (day 11, versus DMSO), the “CD62L expression in CD3-pos/CD8-neg population, as percentage out of CD4 T cells” value was “induced” and the “CD62L+ CD4 T cells as percentage out of total living cells” value is listed as “induced”.
